{"source": "patent EP0820989A1", "about": "“IMIDAZOLE DERIVATIVES AND MEDICINAL COMPOSITION THEREOF” (YAMANOUCHI PHARMACEUTICAL CO., LTD., priority 1995, dated 1996)", "target": "T1, rat steroid 17-20 lyase (Rattus norvegicus, UniProt P11715)", "T1 construct": "Testes were excised from ten-week-old male Wistar rats, homogenized and then centrifuged to give microsomes; from tissue; host or cells: testis microsomes of ten-week-old male Wistar rats", "T1 sequence (P11715 1-507)": "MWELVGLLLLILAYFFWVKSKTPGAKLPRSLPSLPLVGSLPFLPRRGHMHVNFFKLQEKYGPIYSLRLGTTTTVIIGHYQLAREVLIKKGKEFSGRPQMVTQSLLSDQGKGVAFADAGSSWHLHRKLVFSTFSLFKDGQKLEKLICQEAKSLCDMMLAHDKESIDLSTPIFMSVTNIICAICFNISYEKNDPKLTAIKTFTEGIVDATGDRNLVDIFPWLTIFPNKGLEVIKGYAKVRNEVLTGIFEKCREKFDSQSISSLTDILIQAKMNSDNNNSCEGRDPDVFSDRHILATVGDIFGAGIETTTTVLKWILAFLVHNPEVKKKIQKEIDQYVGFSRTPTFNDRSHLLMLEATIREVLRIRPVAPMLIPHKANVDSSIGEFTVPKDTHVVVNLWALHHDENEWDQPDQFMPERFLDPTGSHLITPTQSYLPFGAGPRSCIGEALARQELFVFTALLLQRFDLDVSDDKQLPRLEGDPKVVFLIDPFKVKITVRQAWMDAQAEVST", "experiment": "Measurement of inhibition of rat steroid 17-20 lyase activity [in vitro]", "assay_type": "biochemical", "method": "(1) Measurement of inhibition of rat steroid 17-20 lyase activity [in vitro]\nThis was carried out in accordance with the method described in J. Steroid Biochem., Vol.33, No.6, 1191-1195 (1989).\nTestes were excised from ten-week-old male Wistar rats, homogenized and then centrifuged to give microsomes. The microsomal protein (50 µg), 1 µM of [1,2-^3H]-17α-hydroxyprogesterone (5.55 × 10^5 dpm) and a test compound were dissolved in 100 µl of 50 mM phosphate buffer (pH 7.4), NADPH solution was added, and then the mixture was incubated at 37°C for 60 minutes. Then, 400 µl of a mixed solution of methanol and tetrahydrofuran (2:3) was added, and the mixture was subjected to centrifugation, and then radioactivities of the substrate and the formed product (androstenedione and testosterone) in the resulting supernatant were measured by a high performance liquid chromatography (HPLC) equipped with a radioisotope detector to examine the activity of the test compound to inhibit steroid 17-20 lyase.", "note": "Like-named read-outs stand apart in the source and are kept apart here."}
{"smiles": "Fc1ccc2c(c1)[nH]c1cc(Cc3cccnc3)ccc12", "note": "[Control compound, reference compound]", "values": [{"measurement": "IC50", "setting": "rat testis microsomes (50 µg protein), 1 µM [1,2-3H]-17α-hydroxyprogesterone, NADPH, pH 7.4, 37°C, 60 minutes, HPLC, read-out: Inhibition of steroid 17-20 lyase activity IC50", "result": 12.7, "unit": "nM"}]}
{"smiles": "CC(c1ccc2c(c1)[nH]c1ccccc12)c1c[nH]cn1", "note": "(stereo not drawn) [Example 1e, 2-[1-(1H-Imidazol-4-yl)ethyl]-9H-carbazole]", "values": [{"measurement": "IC50", "result": 3.9, "unit": "nM"}]}
{"smiles": "CCCn1cncc1Cc1ccc2c(c1)[nH]c1ccccc12", "note": "[Example 13, 2-[(1-Propyl-1H-imidazol-5-yl)methyl]-9H-carbazole]", "values": [{"measurement": "IC50", "result": 2.5, "unit": "nM"}]}
